Where two headings read alike, the source gives them in different places.
Experiments:
[1] = Lipophilicity, n-octanol/PBS distribution coefficient logD7.4; format: physicochemical; details: 177Lu-labeled peptide; n-octanol/PBS (1/1), n ≥ 5
Protocol: For determination of lipophilicity, the respective ^177Lu-Labeled peptide precursor (~ 1 MBq, 10 µL in 0.04 M HCl) was added to a solution of n-octanol/PBS (1/1, v/v, 1 mL) and vigourously mixed for 3 min at room temperature (n ≥ 5). Afterwards both phases were seperated using a Biofuge 15 centrifuge (Heraus Sepatech GmbH, Osterode, Germany) at 9,000 rpm for 5 min. 200 µL aliquots of both layers were collected separately, measured in a γ-counter (Perkin Elmer, Waltham, MA, USA) and the logD7.4 value was obtained.

[2] = molecular target: T1, Human serum albumin (HSA) (Homo sapiens, UniProt P02768); experiment: Human serum albumin binding via high performance affinity chromatography (HPAC); format: in vitro ADME; details: Chiralpak HSA column, n = 1
T1 construct: purchased Daicel, Tokyo, Japan H13H-2433
T1 sequence (P02768 25-609): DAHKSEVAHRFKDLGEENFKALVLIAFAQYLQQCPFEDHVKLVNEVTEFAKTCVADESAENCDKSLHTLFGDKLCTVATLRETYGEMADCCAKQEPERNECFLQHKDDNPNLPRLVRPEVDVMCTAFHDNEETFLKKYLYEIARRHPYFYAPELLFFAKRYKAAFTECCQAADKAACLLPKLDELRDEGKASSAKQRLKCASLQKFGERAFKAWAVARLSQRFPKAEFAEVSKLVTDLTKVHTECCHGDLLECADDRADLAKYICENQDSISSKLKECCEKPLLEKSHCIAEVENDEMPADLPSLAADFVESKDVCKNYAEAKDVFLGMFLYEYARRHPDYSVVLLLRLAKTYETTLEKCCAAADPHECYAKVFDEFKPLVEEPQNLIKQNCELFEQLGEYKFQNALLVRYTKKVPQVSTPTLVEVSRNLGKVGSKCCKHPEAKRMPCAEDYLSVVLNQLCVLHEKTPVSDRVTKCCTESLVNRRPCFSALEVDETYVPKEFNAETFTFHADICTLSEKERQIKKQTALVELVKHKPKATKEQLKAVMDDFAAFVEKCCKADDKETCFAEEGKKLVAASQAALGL
Protocol: Human serum albumin (HSA) binding was determined via high performance affinity chromatography (HPAC), according to previously published protocols. Human serum albumin interaction was calculated according to the retention time (n = 1) of our compounds on a Chiralpak HSA column in dependence of nine reference compounds with known HSA interaction.
Human serum albumin binding was determined via high performance affinity chromatography. Therefore, a Chiralpak HSA column (50 × 3 mm, 5 µm, H13H-2433, Daicel, Tokyo, Japan) was used at a constant flow rate of 0.5 ml/min at room temperature. Mobile phase A consisted of a freshly prepared aqueous solution of NH4OAc (pH = 6.9, 50 mM) and mobile phase B of isopropanol. Calibration of the column was performed daily prior to experiments, by determining the retention times of nine reference substances displaying a HSA binding from 13 to 99%. HPLC gradient for all compounds tested was 100% A (0 to 3 min), followed by 80% A (3 to 40 min). All substances tested, were dissolved in a mixture of A/B (0.5 mg/mL, 1:1, v/v). OriginPro 2016G software (Northampton, United States) was used for non-linear regression and data evaluation.

[3] = Biodistribution at 24 h p.i. in AR42J tumor-bearing CB17-SCID mice; format: in vivo; details: mouse, 100 pmol, 100 pmol; for tissue to tissue ratio at 24 h: both sexes, CB17-SCID, total radioactivity
Protocol: (§1) Animal experiments were carried out according to the general animal welfare regulations in Germany (German animal protection act, in the edition of the announcement, dated 18 May 2006, as amended by Article 280 of 19 June 2020, approval no. ROB-55.2–1-2532.Vet_02-18–109 by the General Administration of Upper Bavaria) and the institutional guidelines for the care and use of animals. Therefore, CB17-SCID mice of both genders and aged 2–4 months (Charles River Laboratories International Inc., Sulzfeld, Germany) were used. After arrival at the in-house facilities, mice were allowed to acclimate for a minimum of one week before inoculation of AR42J cells. AR42J cells (6.0 × 10^6 cells per 200 μL) were suspended in a mixture (v/v = 1/1) of nutrient medium and Cultrex® Basement Membrane Matrix Type 3 (Trevigen Inc., Gaithersburg, MD, USA) and inoculated subcutaneously onto the right shoulder of CB17-SCID mice according to a previously reported protocol. Animals were excluded from the study when reaching one of the following endpoints: a weight loss higher than 20%, a tumor size above 1500 mm^3, an ulceration of the tumor, respiratory distress or change of behavior [8]. None of these criteria applied to any animal from the experiment. Neither randomization nor blinding was applied in the allocation of the experiments. Health status of the animals is specific pathogen free according to Federation of European Laboratory Animal Science Associations recommendation.
(§2) Biodistribution studies (n = 4) and µSPECT/CT imaging (n = 1) at 24 h p.i. were carried out as previously published. For all in vivo experiments, approximately 2–3 MBq (100 pmol) of the respective ^177Lu-labeled peptide were administered.
(§3) Table S2. Biodistribution data of [^177Lu]Lu-DOTA-rhCCK-70 and [^177Lu]Lu-DOTA-rhCCK-91 in selected organs at 24 h p.i. in AR42J tumor-bearing CB17-SCID mice (100 pmol each). Data are expressed as %ID/g, mean ± SD.
(§4) Table S3. Tumor-to-background ratios of [^177Lu]Lu-DOTA-rhCCK-70 and [^177Lu]Lu-DOTA-rhCCK-91 in selected organs at 24 h p.i. in AR42J tumor-bearing CB17-SCID mice (100 pmol each). Data are expressed as %ID/g, mean ± SD.

[4] = test system: AR42J tumor-bearing CB17-SCID mice; experiment: as above; format: in vivo; details: for reduction of kidney accumulation and retention compared to [177Lu]Lu-DOTA-rhCCK-18: p < 0.0001
Protocol: as §1, §2, §3, §4

[5] = tumor/adrenal, n=4, Table S3, read-out: Tumor-to-background ratio, Adrenal
[6] = tumor/blood, n=4, Table S3, read-out: Tumor-to-background ratio, Blood
[7] = tumor/bone, n=4, Table S3, read-out: Tumor-to-background ratio, Bone
[8] = tumor/heart, n=4, Table S3, read-out: Tumor-to-background ratio, Heart
[9] = tumor/intestine, n=4, Table S3, read-out: Tumor-to-background ratio, Intestine
[10] = tumor/kidney, n=4, Table S3, read-out: Tumor-to-background ratio, Kidney
[11] = tumor/liver, n=4, Table S3, read-out: Tumor-to-background ratio, Liver
[12] = tumor/lung, n=4, Table S3, read-out: Tumor-to-background ratio, Lung
[13] = tumor/muscle, n=4, Table S3, read-out: Tumor-to-background ratio, Muscle
[14] = tumor/pancreas, n=4, Table S3, read-out: Tumor-to-background ratio, Pancreas
[15] = tumor/spleen, n=4, Table S3, read-out: Tumor-to-background ratio, Spleen
[16] = tumor/stomach, n=4, Table S3, read-out: Tumor-to-background ratio, Stomach
[17] = adrenal, n=4, mean ± SD, read-out: Biodistribution, Adrenal
[18] = blood, n=4, mean ± SD, read-out: Biodistribution, Blood
[19] = bone, n=4, mean ± SD, read-out: Biodistribution, Bone
[20] = heart, n=4, mean ± SD, read-out: Biodistribution, Heart
[21] = intestine, n=4, mean ± SD, read-out: Biodistribution, Intestine
[22] = kidney, n=4, mean ± SD, read-out: Biodistribution, Kidney
[23] = liver, n=4, mean ± SD, read-out: Biodistribution, Liver
[24] = lung, n=4, mean ± SD, read-out: Biodistribution, Lung
[25] = muscle, n=4, mean ± SD, read-out: Biodistribution, Muscle
[26] = pancreas, n=4, mean ± SD, read-out: Biodistribution, Pancreas
[27] = spleen, n=4, mean ± SD, read-out: Biodistribution, Spleen
[28] = stomach, n=4, mean ± SD, read-out: Biodistribution, Stomach
[29] = tumor (AR42J xenograft), n=4, mean ± SD, read-out: Biodistribution, Tumor (AR42J xenograft)

SMILES | logD [1] | HSA binding [2] | tissue to tissue ratio at 24 h [3, 5] | tissue to tissue ratio at 24 h [3, 6] | tissue to tissue ratio at 24 h [3, 7] | tissue to tissue ratio at 24 h [3, 8] | tissue to tissue ratio at 24 h [3, 9] | tissue to tissue ratio at 24 h [3, 10] | tissue to tissue ratio at 24 h [3, 11] | tissue to tissue ratio at 24 h [3, 12] | tissue to tissue ratio at 24 h [3, 13] | tissue to tissue ratio at 24 h [3, 14] | tissue to tissue ratio at 24 h [3, 15] | tissue to tissue ratio at 24 h [3, 16] | tissue uptake at 24 h [3, 17] | tissue uptake at 24 h [3, 18] | tissue uptake at 24 h [3, 19] | tissue uptake at 24 h [3, 20] | tissue uptake at 24 h [3, 21] | tissue uptake at 24 h [3, 22] | also measured
CCCC[C@@H](C(=O)N[C@@H](CC(=O)O)C(=O)N[C@@H](Cc1cccc2ccccc12)C(N)=O)N(C)C(=O)[C@H](Cc1c[nH]c2ccccc12)NC(=O)CCOCCOCCOCCOCCNC(=O)CC[C@@H](NC(=O)CCOCCOCCOCCOCCOCCOCCOCCOCCNC(=O)CC[C@@H](NC(=O)[C@@H](CNC(=O)c1ccc([Si](F)(C(C)(C)C)C(C)(C)C)cc1)NC(=O)CN1CCN(CC(=O)O)CCN(CC(=O)O)CCN(CC(=O)O)CC1)C(=O)O)C(=O)O [[^nat/177Lu]Lu-DOTA-rhCCK-70, DOTA-D-Dap(p-SiFA)-D-γ-Glu-(PEG)7-D-γ-Glu-(PEG)3-Trp-(N-Me)Nle-Asp-1-Nal-NH2, metal not drawn] | -1.67 | 89.3% | 20.5 ± 8.5 | 143 ± 49 | 9.48 ± 8.05 | 55.4 ± 13.4 | 27.4 ± 7.7 | 1.44 ± 0.12 | 4.26 ± 1.7 | 33.4 ± 8.53 | 276 ± 189 | 55.2 ± 19.6 | 6.95 ± 2.17 | 1.97 ± 0.24 | 0.55 ± 0.46 %ID/g | 0.1 ± 0.04 %ID/g | 2.4 ± 1.5 %ID/g | 0.23 ± 0.05 %ID/g | 0.48 ± 0.13 %ID/g | 8.4 ± 0.8 %ID/g | tissue to tissue ratio at 24 h ([3]; tumor/kidney, read-out: tumor-to-kidney ratio): 1.4 ± 0.1; tissue to tissue ratio at 24 h ([3]; tumor/stomach, read-out: tumor-to-stomach ratio): 2 ± 0.2; tissue uptake at 24 h ([3]; bone, depending on 177Lu-batch, read-out: activity levels in the bone, range observed (correlating with free lutetium-177)): 0.5 to 4.3 %ID/g; tissue uptake at 24 h [3, 23]: 3.5 ± 1.7 %ID/g; tissue uptake at 24 h [3, 24]: 0.39 ± 0.12 %ID/g; tissue uptake at 24 h [3, 25]: 0.06 ± 0.03 %ID/g; tissue uptake at 24 h [3, 26]: 0.24 ± 0.08 %ID/g; tissue uptake at 24 h [3, 27]: 1.9 ± 0.6 %ID/g; tissue uptake at 24 h [3, 28]: 6.2 ± 0.9 %ID/g; tissue uptake at 24 h [3, 29]: 12 ± 0.8 %ID/g; decrease of activity levels in the tumor compared to [177Lu]Lu-DOTA-rhCCK-18 [4]: 2 fold; tumor-to-kidney ratio [4]: 1.45 ± 0.12; Biodistribution, Kidney ([4]; 100 pmol, n=4, mean ± SD): 8.37 ± 0.78 %ID/g; Biodistribution, Liver ([4]; 100 pmol, n=4, mean ± SD): 3.48 ± 1.66 %ID/g; Biodistribution, Spleen ([4]; 100 pmol, n=4, mean ± SD): 1.92 ± 0.60 %ID/g; Biodistribution, Stomach ([4]; 100 pmol, n=4, mean ± SD): 6.21 ± 0.85 %ID/g; reduction of kidney accumulation and retention compared to [177Lu]Lu-DOTA-rhCCK-18 [4]: 16 fold
CCCC[C@@H](C(=O)N[C@@H](CC(=O)O)C(=O)N[C@@H](Cc1cccc2ccccc12)C(N)=O)N(C)C(=O)[C@H](Cc1c[nH]c2ccccc12)NC(=O)CCOCCOCCOCCOCCNC(=O)CC[C@@H](NC(=O)CCOCCOCCOCCOCCOCCNC(=O)CC[C@@H](NC(=O)[C@@H](CNC(=O)C[N+](C)(C)Cc1ccc([Si](F)(C(C)(C)C)C(C)(C)C)cc1)NC(=O)CN1CCN(CC(=O)O)CCN(CC(=O)O)CCN(CC(=O)O)CC1)C(=O)O)C(=O)O [[^nat/177Lu]Lu-DOTA-rhCCK-91, DOTA-D-Dap(SiFAlin)-D-γ-Glu-(PEG)4-D-γ-Glu-(PEG)3-Trp-(N-Me)Nle-Asp-1-Nal-NH2, metal not drawn] | -1.66 ± 0.08 | 90.0% | 17.3 ± 1.9 | 185 ± 32 | 11.8 ± 0.72 | 25.3 ± 5.2 | 12.3 ± 5.1 | 1.14 ± 0.12 | 3.8 ± 0.37 | 29.3 ± 4.2 | 147 ± 65 | 8.98 ± 2.1 | 7.35 ± 0.75 | 1.95 ± 0.27 | 0.44 ± 0.09 %ID/g | 0.04 ± 0.01 %ID/g | 0.64 ± 0.12 %ID/g | 0.31 ± 0.07 %ID/g | 0.68 ± 0.16 %ID/g | 6.6 ± 0.5 %ID/g | tissue uptake at 24 h [3, 23]: 2 ± 0.1 %ID/g; tissue uptake at 24 h [3, 24]: 0.26 ± 0.05 %ID/g; tissue uptake at 24 h [3, 25]: 0.06 ± 0.01 %ID/g; tissue uptake at 24 h [3, 26]: 0.9 ± 0.32 %ID/g; tissue uptake at 24 h [3, 27]: 1 ± 0.3 %ID/g; tissue uptake at 24 h [3, 28]: 4 ± 1.2 %ID/g; tissue uptake at 24 h [3, 29]: 7.5 ± 1 %ID/g; decrease of activity levels in the tumor compared to [177Lu]Lu-DOTA-rhCCK-18 [4]: three; Biodistribution, Kidney ([4]; 100 pmol, n=4, mean ± SD): 6.58 ± 0.53 %ID/g; Biodistribution, Liver ([4]; 100 pmol, n=4, mean ± SD): 1.96 ± 0.08 %ID/g; Biodistribution, Spleen ([4]; 100 pmol, n=4, mean ± SD): 1.04 ± 0.26 %ID/g; Biodistribution, Stomach ([4]; 100 pmol, n=4, mean ± SD): 3.99 ± 1.16 %ID/g; Biodistribution, Tumor (AR42J xenograft) ([4]; 100 pmol, n=4, mean ± SD): 7.47 ± 1.01 %ID/g; reduction of kidney accumulation and retention compared to [177Lu]Lu-DOTA-rhCCK-18 [4]: 20 fold

Source: publication PMC10907560, “Significant reduction of activity retention in the kidneys via optimized linker sequences in radiohybrid-based minigastrin analogs” (EJNMMI Research, 2024)
